# Measurements published in patent publication US20030203908A1, “Dihydrofolate reductase inhibitors” (priority 2000, published 2003).
# How the values were obtained:
# [1] = tested on: P. falciparum 3D7 (wild-type strain); experiment: In vitro inhibition of P. falciparum 3D7; type: cell-based, Plasmodium falciparum; details: Plasmodium falciparum, 3D7 strain, read-out: Pf-3D7 ED50
# [2] = tested on: wild-type (TM4/8.2) strain of P. falciparum; experiment: microbe, parasite or virus in culture; type: cell-based, Plasmodium falciparum; details: Plasmodium falciparum; wild-type strain TM4/8.2
# Description: Mol. Biochem. Parasitol. […] Science, 1976, 193, 673-675]. In vitro antimalarial activity was determined by using [^3H]-hypoxanthine incorporation method [Desjardins, R. E.; Canfield, C. J.; Haynes, J. D.; Chulay, J. D. Quantitative assessment of antimalarial activity in vitro by a semiautomated microdilution technique. Antimicrob Agents Chemother. 1979, 16, 710-718]. The drugs were initially dissolved in DMSO and diluted with the culture media. Aliquots (25 μl) of drug solution of different concentrations was placed in 96-well plate together with 200 μl of 1.5% cell suspension of parasitized erythrocytes containing 1-2% parasitemia. Final concentration of DMSO was 0.1% where there was no effect on the parasite growth. The mixtures were incubated in a 3% CO2 incubator at 37° C. After 24 h of incubation, 25 μl (0.25 μCi) of [^3H]-hypoxanthine were added to each well. The mixtures were further incubated under the same condition for 18-24 h. DNA of parasites was harvested onto glass filter paper (Unifilter, Packard, USA). The filters were dried and liquid scintillation fluid was added for radioactivity measurement in a 6-probe liquid scintillation-counter (Packard, USA).
# [3] = tested on: P. falciparum FCR3 (resistant strain containing the A16V.S108T DHFR mutant); experiment: In vitro inhibition of P. falciparum FCR3; type: cell-based, Plasmodium falciparum; details: Plasmodium falciparum; in vitro, FCR3 strain; read-out: Pf-FCR3 ED50
# [4] = target: T1, A16V.S108T mutant (mut) of DHFR from Plasmodium falciparum (Plasmodium falciparum, UniProt A7UD81, A16V/S108T); experiment: biochemical
# T1 construct: The Dihydrofolate Reductase Domain of Plasmodium falciparum Thymidylate Synthase-Dihydrofolate Reductase; made in house
# Description: (§1) For determination of the Ki values of a number of synthesized analogues, the assay reactions were initiated with affinity-purified enzyme (^˜0.005-0.01 U ml^−1), and the initial velocities in the presence of varying concentrations of inhibitors were analysed by non-linear least square fit using Kaleidagraph™ software.
# [5] = tested on: A16V.S108T mutant (mut) of DHFR from Plasmodium falciparum; experiment: biochemical; details: resistance factor
# Description: as §1
# [6] = target: T2, human DHFR (Homo sapiens, UniProt P00374); experiment: Inhibition of human DHFR (I50-derived Ki); type: biochemical; details: Human Ki (I50)(nM);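 note: recombinant human DHFR expressed in E. coli and purified by methotrexate affinity chromatography, enzyme activity followed spectrophotometrically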
# T2 construct: made in house; host or cells: E. coli M15
# T2 sequence (P00374 1-187): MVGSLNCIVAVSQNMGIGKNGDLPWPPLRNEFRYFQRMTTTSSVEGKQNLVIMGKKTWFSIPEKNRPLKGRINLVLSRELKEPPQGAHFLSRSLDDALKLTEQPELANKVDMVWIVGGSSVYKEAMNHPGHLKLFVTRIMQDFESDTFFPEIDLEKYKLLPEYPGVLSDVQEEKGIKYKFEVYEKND
# Description: (§2) Folic acid and NADPH, were purchased from Sigma. Dihydrofolate was prepared from folic acid dithionate reduction. Methotrexate (MTX) was from Lederle Laboratories. MTX sepharose CL-6B was prepared according to the protocol described by Dann. et al. IPTG came from Boehringer Manheim. The expression system used for recombinant human DHFR production, which includes the plasmid PB-E1/RB SII, SphI-HDHFR expressed in E. coli M15, was supplied by Santi, D. V (Department of Biochemistry and Biophysics and Department of Pharmaceutical Chemistry, University of California). Recombinant T. Cruzi DHFR-TS was produced using the system pET 11c with the insertion of the complete ORF of the gene tc-dhfrts. The resulting plasmid was called pET DT.
# (§3) Human and T.cruzi DHFR were produced using inducible expression systems. For human DHFR, fresh overnight cultures of E. coli M15, transformed with the plasmid, pB-E1/RB SII, SphI-HDHFR, were grown in LB and 0.1 mg/ml ampicillin medium at 28° C. For T.cruzi DHFR-TS, cultures of E. coli, BL21 (DE3) transformed with the plasmid pETDT system were grown at 37° C. The same purification protocol was used for both systems. When OD600 was at 0.8, cells pellets were collected by centrifugation, suspended in 50 ml of LB medium, containing 0.1 mg/ml of ampicillin. 10 ml of this preinocule was added to 2 litres of LB medium. Cultures were shaken at 28° C. or 37° C. (for human and T. cruzi DHFR respectively) and induction with IPTG ImM was performed when OD600 reached 0.8. After IPTG induction, cells were grown overnight in a shaker at 28° C. or 5 hours at 28° C. or 37° C. (for human and T. cruzi DHFR respectively) and then harvested by centrifugation.
# (§4) Cell pellets were suspended in sonication buffer (2× TES DHFR:TES 100 mM, 2-mercaptoethanol 150 mM, EDTA 2 mM pH=7) containing protease inhibitors.
# (§5) Crude extract was circulated through the MTX-Sepharose column at 4° C. at a flow rate of 0.2 ml/min until the protein was bound to the resin. The column was washed with an excess of buffer B (KH2PO410 mM pH 7, KC1 1M). Protein was eluted at 0.2 min/ml with an elution buffer (100 mM TES, 10 mM DTT, 2 mM EDTA, DHF 8.5 mM), the elution profile was collected in 1 ml fractions using a Pharmacia LKB Frac 200 collector. Finally, the protein was desalted using molecular size exclusion chromatography in a Pharmacia G-25 column. Fractions containing DHFR activity were pooled and concentrated by ultrafiltration using centripreps Amicon.
# (§6) The purity of the protein preparation was assessed by detection of a single band of the correct molecular weight stained with coomasie blue following a 12% SDS-PAGE. Protein concentration was determined by the method of Bradford using a BSA as a standard. DHFR activity was measured spectrophotometrically by monitoring the decrease in absorbance at 340 mm. […] One unit of enzyme, is defined as the amount of enzyme which produces 1 nmol of product per min using ε of 12300M^−1 at 340 nm.
# (§7) Inhibition of dihydrofolate reductases by 1,2-dihydro-1,3,5 triazines was analysed with T. cruzi and human DHFR.
# (§8) DHFR assays contained 30 mM dihydrofolate, 0.1 mM NADPH, 50 mM TES buffer pH 7, 75 mM 2-mercaptoethanol and specified amounts of inhibitors. The reaction was initiated by addition of 2.8 or 2.3 units of T. cruzi and human, respectively, and monitored at 340 nm.
# (§9) Selective inhibition of dihydrofolate reductase by 1,2-dihydro-1,3,5-triazines was analysed with T. cruzi and human DHFR. DHFR assays contained 30 μM dihydrofolate, 0.1 mM NADPH, 50 mM TES buffer pH 7, 75 mM β-mercaptoethanol and specified amounts of inhibitors. The reaction was initiated by addition of 2.8 or 2.3 units of T. cruzi and human enzyme, respectively, and monitored at 340 nm. […] KiI 50=[I]0.5/((1+[S])/Km)
# [7] = target: T3, wild-type (wt) DHFR from Plasmodium falciparum (Plasmodium falciparum, UniProt P13922, N108S/R59C); experiment: Inhibition of wild-type pfDHFR (spectrophotometric, Ki); type: biochemical; details: Ki(wt) nM;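 note: Affinity-purified enzyme, initial reaction rates measured across a range of inhibitor concentrations, Ki obtained by nonlinear least-squares fitting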
# T3 construct: The Dihydrofolate Reductase Domain of Plasmodium falciparum Thymidylate Synthase-Dihydrofolate Reductase; made in house
# Description: as §1
# [8] = target: T4, DHFR-TS from Trypanosoma cruzi (Trypanosoma cruzi, UniProt Q27793); experiment: Inhibition of T. cruzi DHFR-TS (I50-derived Ki);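 for all read-outs here: enzymes were recombinant T. cruzi DHFR-TS and human DHFR, both expressed in E. coli and purified on a methotrexate affinity column, with dihydrofolate and NADPH as substrates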; type: biochemical; details: for Selectivity: human Ki / T. cruzi Ki
# T4 construct: pET 11c with the insertion of the complete ORF of the gene tc-dhfrts; made in house; host or cells: E. coli BL21 (DE3)
# Description: DHFR activity was measured spectrophotometrically by monitoring the decrease in absorbance at 340 mm.
# as §7, §8
# Selective inhibition of dihydrofolate reductase by 1,2-dihydro-1,3,5-triazines was analysed with T. cruzi and human DHFR. DHFR assays contained 30 μM dihydrofolate, 0.1 mM NADPH, 50 mM TES buffer pH 7, 75 mM β-mercaptoethanol and specified amounts of inhibitors. The reaction was initiated by addition of 2.8 or 2.3 units of T. cruzi and human enzyme, respectively, and monitored at 340 nm.
# KiI 50=[I]0.5/((1+[S])/Km)
# [9] = target: human DHFR; experiment: Inhibition of human DHFR (I50-derived Ki); type: biochemical;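 note: recombinant human DHFR expressed in E. coli and purified by methotrexate affinity chromatography, enzyme activity followed spectrophotometrically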
# Description: as §2, §3, §4, §5, §6, §7, §8, §9
# T3 sequence (P13922 10-228 R59C/N108S): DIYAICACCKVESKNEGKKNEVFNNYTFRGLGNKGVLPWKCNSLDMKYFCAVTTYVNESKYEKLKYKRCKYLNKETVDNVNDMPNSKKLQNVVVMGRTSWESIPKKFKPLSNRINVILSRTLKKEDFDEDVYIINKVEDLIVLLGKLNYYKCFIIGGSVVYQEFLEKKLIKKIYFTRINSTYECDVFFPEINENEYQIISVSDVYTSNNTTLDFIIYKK
# T4 sequence (Q27793 whole entry): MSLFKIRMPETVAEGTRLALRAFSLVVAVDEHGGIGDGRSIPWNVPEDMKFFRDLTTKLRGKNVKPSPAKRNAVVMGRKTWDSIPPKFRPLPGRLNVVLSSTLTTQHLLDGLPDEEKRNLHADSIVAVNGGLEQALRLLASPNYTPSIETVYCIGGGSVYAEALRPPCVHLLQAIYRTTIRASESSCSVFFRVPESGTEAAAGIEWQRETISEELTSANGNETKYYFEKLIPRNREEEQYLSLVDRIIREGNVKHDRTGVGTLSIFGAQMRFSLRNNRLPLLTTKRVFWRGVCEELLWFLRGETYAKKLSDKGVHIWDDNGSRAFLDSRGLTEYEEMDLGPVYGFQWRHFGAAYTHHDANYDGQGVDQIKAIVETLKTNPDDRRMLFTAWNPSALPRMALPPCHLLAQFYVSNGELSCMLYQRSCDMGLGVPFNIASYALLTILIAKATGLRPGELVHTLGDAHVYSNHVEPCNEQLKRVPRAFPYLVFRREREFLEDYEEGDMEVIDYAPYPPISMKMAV
# T1 sequence (A7UD81 1-231 A16V/S108T): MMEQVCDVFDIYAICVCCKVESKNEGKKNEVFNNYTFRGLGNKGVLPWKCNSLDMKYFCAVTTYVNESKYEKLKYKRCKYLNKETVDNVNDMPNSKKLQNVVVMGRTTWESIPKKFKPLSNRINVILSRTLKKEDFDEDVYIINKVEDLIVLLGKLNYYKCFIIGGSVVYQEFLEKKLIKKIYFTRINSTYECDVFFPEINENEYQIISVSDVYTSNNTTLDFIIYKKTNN
Structure (SMILES),IC50 [1] [µg/mL],IC50 [2] [nM],IC50 [3] [µg/mL],Ki [4] [nM],Ki(mut)/Ki(wt) [5],Ki ([6]; human DHFR) [nM],Ki [7] [nM],Ki [8] [nM],Selectivity [8],Ki [6] [nM],Ki (human)/Ki (P. falc. mut) [9],Ki (human)/Ki (P. falc. wt) [9],Ki (human)/Ki (T. cruzi) [9]
COc1ccc(Oc2cccc(C3N=C(N)N=C(N)N3c3ccc(Cl)cc3)c2)cc1 (stereo not drawn) [(Ia) R2=3-(4-methoxyphenoxyl)phenyl],5.19,2880,1.25,6.6,9.4,830,0.7,48,17,,,,
CC(C)(C)c1ccc(Oc2cccc(C3N=C(N)N=C(N)N3c3ccc(Cl)cc3)c2)cc1 (stereo not drawn) [(Ia) R2=3-(4-t-butylphenoxy)phenyl],0.75,4120,0.26,9.9 ± 1.5,5.8,770,1.7,112,7,,,,
NC1=NC(c2ccc(-c3ccccc3)cc2)N(c2ccc(Cl)cc2)C(N)=N1 (stereo not drawn) [(Ia) R2=4-biphenyl],2.2,621,0.68,8.5,6.5,,1.3 ± 0.1,,,,,,
"Cl.NC1=NCN(c2ccc(Cl)cc2)C(N)=N1 [(Ia) R2=H, 1-(4′-Chlorophenyl)-4,6-diamino-1,2-dihydro-1,3,5-triazine hydrochloride]",0.04,952,0.13,649 ± 77,26,,24.4 ± 4.3,16,76,1210,1.9,49.7,75.7
NC1=NC(c2cccc(OCc3ccccc3)c2)N(c2ccc(Cl)cc2)C(N)=N1 (stereo not drawn) [(Ia) R2=m-benzyloxyphenyl],0.18,832,0.62,6.2,8.8,,0.7,,,,,,
"NC1=NC(c2cccc(Oc3ccccc3)c2)N(c2ccc(Cl)cc2)C(N)=N1 (stereo not drawn) [(Ia) R2=m-phenoxyphenyl, 1-p-chlorophenyl-2-m-phenoxyphenyl-4,6-diamino-1,2-dihydro-1,3,5-triazine]",0.28,367,0.32,2.7,5.4,190,0.5,21,9,,,,
NC1=NC(c2ccc(OCc3ccccc3)cc2)N(c2ccc(Cl)cc2)C(N)=N1 (stereo not drawn) [(Ia) R2=p-benzyloxyphenyl],0.26,107,,4.4,7.3,1110,0.6,13,85,,,,
"CCCCOc1ccc(C2N=C(N)N=C(N)N2c2ccc(Cl)cc2)cc1 (stereo not drawn) [(Ia) R2=p-butyloxyphenyl, 1-p-chlorophenyl-2-p-n-butyloxyphenyl-4,6-diamino-1,2-dihydro-1,3,5-triazine]",0.14,287,0.091,5,5.0,400,1 ± 0.1,26,15,,80,400,15.3
"CC(C)c1ccc(C2N=C(N)N=C(N)N2c2ccc(Cl)cc2)cc1 (stereo not drawn) [(Ia) R2=p-isopropylphenyl, 1-p-chlorophenyl-2-p-isopropylphenyl-4,6-diamino-1,2-dihydro-1,3,5-triazine]",,973,,15.2 ± 1.6,8.0,10000,1.9 ± 0.6,60,167,,661,5289,167
"COc1ccc(C2N=C(N)N=C(N)N2c2ccc(Cl)cc2)cc1 (stereo not drawn) [(Ia) R2=p-methoxyphenyl, 1-p-chlorophenyl-2-p-methoxyphenyl-4,6-diamino-1,2-dihydro-1,3,5-triazine]",,424,,129 ± 25,11.3,5530,11.4 ± 1.5,26,212,,42.9,485,212
"NC1=NC(c2ccc(Oc3ccccc3)cc2)N(c2ccc(Cl)cc2)C(N)=N1 (stereo not drawn) [(Ia) R2=p-phenoxyphenyl, 1-p-chlorophenyl-2-p-phenoxyphenyl-4,6-diamino-1,2-dihydro-1,3,5-triazine]",0.07,121,0.2,3.8,9.5,1130,0.4,3,376,,,,
CC(C)(C)c1ccc(Oc2cccc(C3N=C(N)N=C(N)N3c3cccc(Cl)c3)c2)cc1 (stereo not drawn) [(Ib) R2=3-(4-t-butylphenoxy)phenyl],> 0.3,5040,0.47,5.6 ± 0.9,0.7,,7.7 ± 0.5,,,,,,
NC1=NC(c2cccc(OCc3ccccc3)c2)N(c2cccc(Cl)c2)C(N)=N1 (stereo not drawn) [(Ib) R2=3-benzyloxyphenyl],0.45,3970,0.019,3.2 ± 0.2,1.4,46,2.3 ± 0.5,12,3.8,,,,
"NC1=NCN(c2ccc(OCc3ccccc3)cc2)C(N)=N1 [R2=H, X=BnO, Y=H]",,690,,28.6 ± 2.2,1.3,44,22.4 ± 1.3,10,4.4,,1.54,1.96,4.44
"NC1=NCN(c2cccc(Cc3ccccc3)c2)C(N)=N1 [R2=H, X=H, Y=Bn]",,403,,6 ± 0.1,0.6,66,9.4 ± 0.4,29,2.3,,11,7.0,2.27
